US8217085B2 (priority 2009, dated 2012)
Values joined by “and” are separate entries in the source; they are usually repeats but may differ in a detail not shown here. Equal entries are not always repeated. Where two headings read alike, the source gives them in different places.

Tests used:
[1] = system: ATCC strain 43300 Staphylococcus aureus; experiment: Survival of MRSA in MSM alone, 24 and 48 hours (USP<51> Antimicrobial Effectiveness template); settings: 5-16% MSM alone, 24 or 48 hour time point
Description: USP<51> Antimicrobial Effectiveness protocol was used as the template experimental paradigm. […] All concentrations were plated out to the 10^−7 dilutionsto ascertain cfu/ml.
Material was calculated on a 10 ml volume.
All tubes were inoculated with a dilution of MRSA giving a final level of colony forming units of 2.0×10^5/ml (Log=5.23). The tubes were incubated at 25° C. and mixed periodically. Plating was done at 24 and 48 hours. Each condition was plated by diluting 1 ml of growth material into 9 ml of MLB diluent broth. This mixture was serial diluted down to 10^−7, and 1 ml placed in a sterile petri dish at each dilution point. 20 mls of TSA was added to each dilution, swirled and allowed to solidify. All dilutions were placed in a 35° C. incubator for 24 hours. Bacterial colonies on each plate were counted and colony counts changed into log format. A positive and negative control was ascertained.

[2] = system: ATCC strain 43300 Staphylococcus aureus
Description: Additional antibiotic was added every 24 hours.
USP<51> Antimicrobial Effectiveness protocol was used as the template experimental paradigm. […] All concentrations were plated out to the 10^−7 dilutionsto ascertain cfu/ml. […] Additional antibiotic was added at the initial concentration every 24 hours.
ATCC strain 43300 Staphylococcus aureus was streaked out for isolations. An isolated colony was chosen, streaked again and incubated. Isolate was chosen and then diluted to a McFarland standard of one. The estimated value was then taken to inoculate tubes containing growth media and 12, 30 or 60 μg/ml oxacillin with approximately 10^5 cfu/ml. These tubes were incubated and plated for counting cfu.
Material was calculated on a 10 ml volume. Sterile oxacillin was added to each experimental condition to a final concentration of 12, 30 or 60 μg/ml antibiotic.
All tubes were then inoculated with a dilution of the selected ATCC strain 43300 Staphylococcus aureus clone giving a final level of colony forming units of 3.3×10^5/ml (log=5.52). The tubes were incubated at 25° C. and mixed periodically. Antibiotic was re-inoculated every 24 hours at the initial concentration to maintain pressure on the organism. Plating was done at 24, 48, 72, and 120 hours. Each condition was plated by diluting 1 ml of growth material into 9 ml of MLB diluent broth. […] This mixture was serial diluted down to 10^−7 with 1 ml placed in triplicate in a sterile petri dish at each dilution point. 20 mls of TSA was added to each dilution, swirled and allowed to solidify. All dilutions were placed in a 35° C. incubator for 24 to 72 hours. Bacterial colonies on each plate were counted and the average taken then changed into log format. Any cfu/ml observed greater than 3.3×10^5 (log=5.5) were recorded as >3.3×10^5.

[3] = 5% MSM, 12 μg/ml oxacillin, 24 hours
[4] = 5% MSM, 30 μg/ml oxacillin, 24 hours
[5] = 5% MSM, 60 μg/ml oxacillin, 24 hours
[6] = 6% MSM, 12 μg/ml oxacillin, 24 hours
[7] = 6% MSM, 30 μg/ml oxacillin, 24 hours
[8] = 6% MSM, 60 μg/ml oxacillin, 24 hours
[9] = 7% MSM, 12 μg/ml oxacillin, 24 hours
[10] = 7% MSM, 30 μg/ml oxacillin, 24 hours
[11] = 7% MSM, 60 μg/ml oxacillin, 24 hours
[12] = 8% MSM, 12 μg/ml oxacillin, 24 hours
[13] = 8% MSM, 30 μg/ml oxacillin, 24 hours
[14] = 8% MSM, 60 μg/ml oxacillin, 24 hours
[15] = 9% MSM, 12 μg/ml oxacillin, 24 hours
[16] = 9% MSM, 30 μg/ml oxacillin, 24 hours
[17] = 9% MSM, 60 μg/ml oxacillin, 24 hours
[18] = 10% MSM, 12 μg/ml oxacillin, 24 hours
[19] = 10% MSM, 12 μg/ml oxacillin, 48 hours
[20] = 10% MSM, 30 μg/ml oxacillin, 24 hours
[21] = 10% MSM, 60 μg/ml oxacillin, 24 hours
[22] = 11% MSM, 12 μg/ml oxacillin, 24 hours
[23] = 11% MSM, 12 μg/ml oxacillin, 48 hours
[24] = 11% MSM, 30 μg/ml oxacillin, 24 hours

## CS(C)(=O)=O [MSM, methylsulfonylmethane]
[1]
  effect on survival: none of the concentrations of MSM tested had any effect on the survival
[2]; [3]
  Average Log: 3.91 Log
  survival: 8.4 × 10^3 cfu/ml and 8.0 × 10^3 cfu/ml
[2]; 5% MSM, 12 μg/ml oxacillin, 48 hours
  Average Log: 3.6 Log
[2]; 5% MSM, 12 μg/ml oxacillin, 72 hours
  Average Log: 5.5 Log
[2]; [4]
  Average Log: 2.51 Log
  survival: 3.1 × 10^2 cfu/ml and 3.3 × 10^2 cfu/ml
[2]; 5% MSM, 30 μg/ml oxacillin, 48 hours
  Average Log: 3.8 Log
[2]; 5% MSM, 30 μg/ml oxacillin, 72 hours
  Average Log: 5.5 Log
[2]; [5]
  Average Log: 2.54 Log
  survival: 3.5 × 10^2 cfu/ml and 3.3 × 10^2 cfu/ml and 3.6 × 10^2 cfu/ml
[2]; 5% MSM, 60 μg/ml oxacillin, 48 hours
  Average Log: 3.5 Log
[2]; 5%, 10% and 16% MSM, no antibiotic, 24 hours
  growth: turbid growth
[2]; [6]
  Average Log: 3.92 Log
  survival: 8.6 × 10^3 cfu/ml and 8.5 × 10^3 cfu/ml and 8.0 × 10^3 cfu/ml
[2]; 6% MSM, 12 μg/ml oxacillin, 48 hours
  Average Log: 3.2 Log
[2]; 6% MSM, 12 μg/ml oxacillin, 72 hours
  Average Log: 5.5 Log
[2]; [7]
  Average Log: 2.46 Log
  survival: 2.9 × 10^2 cfu/ml
[2]; 6% MSM, 30 μg/ml oxacillin, 48 hours
  Average Log: 3.7 Log
[2]; 6% MSM, 30 μg/ml oxacillin, 72 hours
  Average Log: 5.5 Log
[2]; [8]
  Average Log: 2.38 Log
  survival: 2.4 × 10^2 cfu/ml
[2]; 6% MSM, 60 μg/ml oxacillin, 48 hours
  Average Log: 1.8 Log
[2]; [9]
  Average Log: 3.91 Log
  survival: 8.2 × 10^3 cfu/ml and 8.5 × 10^3 cfu/ml and 8.3 × 10^3 cfu/ml
[2]; 7% MSM, 12 μg/ml oxacillin, 48 hours
  Average Log: 3.9 Log
[2]; 7% MSM, 12 μg/ml oxacillin, 72 hours
  Average Log: 5.5 Log
[2]; [10]
  Average Log: 2.98 Log
  survival: 9.7 × 10^2 cfu/ml and 9.6 × 10^2 cfu/ml and 9.2 × 10^2 cfu/ml
[2]; 7% MSM, 30 μg/ml oxacillin, 48 hours
  Average Log: 2.3 Log
[2]; 7% MSM, 30 μg/ml oxacillin, 72 hours
  Average Log: 4.5 Log
[2]; [11]
  Average Log: 2.34 Log
  survival: 2.1 × 10^2 cfu/ml and 2.3 × 10^2 cfu/ml
[2]; 7% MSM, 60 μg/ml oxacillin, 48 hours
  Average Log: 4.0 Log
[2]; [12]
  Average Log: 3.82 Log
  survival: 6.6 × 10^3 cfu/ml and 6.9 × 10^3 cfu/ml
[2]; 8% MSM, 12 μg/ml oxacillin, 48 hours
  Average Log: 3.7 Log
[2]; 8% MSM, 12 μg/ml oxacillin, 72 hours
  Average Log: 5.5 Log
[2]; [13]
  Average Log: 3.07 Log
  survival: 1.18 × 10^3 cfu/ml and 1.16 × 10^3 cfu/ml
[2]; 8% MSM, 30 μg/ml oxacillin, 48 hours
  Average Log: 3.1 Log
[2]; 8% MSM, 30 μg/ml oxacillin, 72 hours
  Average Log: 5.5 Log
[2]; [14]
  Average Log: 2.67 Log
  survival: 4.6 × 10^2 cfu/ml and 5.0 × 10^2 cfu/ml
[2]; 8% MSM, 60 μg/ml oxacillin, 48 hours
  Average Log: 2.8 Log
[2]; [15]
  Average Log: 3.72 Log
  survival: 5.6 × 10^3 cfu/ml and 5.2 × 10^3 cfu/ml and 5.0 × 10^3 cfu/ml
[2]; 9% MSM, 12 μg/ml oxacillin, 48 hours
  Average Log: 3.4 Log
[2]; 9% MSM, 12 μg/ml oxacillin, 72 hours
  Average Log: 4.5 Log
[2]; [16]
  Average Log: 3.01 Log
  survival: 1.06 × 10^3 cfu/ml and 1.05 × 10^3 cfu/ml and 1.02 × 10^3 cfu/ml
[2]; 9% MSM, 30 μg/ml oxacillin, 48 hours
  Average Log: 2.4 Log
[2]; 9% MSM, 30 μg/ml oxacillin, 72 hours
  Average Log: 2.9 Log
[2]; [17]
  Average Log: 2.50 Log
  survival: 3.2 × 10^2 cfu/ml
[2]; 9% MSM, 60 μg/ml oxacillin, 48 hours
  Average Log: 2.2 Log
[2]; [18]
  Average Log: 3.76 Log
  survival: 5.8 × 10^3 cfu/ml and 5.6 × 10^3 cfu/ml and 6.0 × 10^3 cfu/ml
[2]; [19]
  Average Log: 2.7 Log
  survival: 5.6 × 10^2 cfu/ml
[2]; 10% MSM, 12 μg/ml oxacillin, 72 hours
  Average Log: 4.0 Log
[2]; [20]
  Average Log: 3.32 Log
  survival: 2.2 × 10^3 cfu/ml and 2.0 × 10^3 cfu/ml
[2]; 10% MSM, 30 μg/ml oxacillin, 48 hours
  Average Log: 2.6 Log
[2]; 10% MSM, 30 μg/ml oxacillin, 72 hours
  Average Log: 3.9 Log
[2]; [21]
  Average Log: 2.63 Log
  survival: 4.2 × 10^2 cfu/ml and 4.4 × 10^2 cfu/ml
[2]; 10% MSM, 60 μg/ml oxacillin, 48 hours
  Average Log: 2.2 Log
[2]; [22]
  Average Log: 3.91 Log
  survival: 8.2 × 10^3 cfu/ml and 8.5 × 10^3 cfu/ml and 8.0 × 10^3 cfu/ml
[2]; [23]
  Average Log: 2.8 Log
  survival: 6.4 × 10^2 cfu/ml and 5.8 × 10^2 cfu/ml and 6.5 × 10^2 cfu/ml
[2]; 11% MSM, 12 μg/ml oxacillin, 72 hours
  Average Log: 3.6 Log
[2]; [24]
  Average Log: 3.57 Log
  survival: 3.9 × 10^3 cfu/ml and 3.7 × 10^3 cfu/ml
[2]; 11% MSM, 30 μg/ml oxacillin, 48 hours
  Average Log: 2.4 Log
[2]; 11% MSM, 30 μg/ml oxacillin, 72 hours
  Average Log: 3.2 Log
[2]; 11% MSM, 60 μg/ml oxacillin, 24 hours
  Average Log: 2.83 Log
